Measured values reported in ChEMBL document CHEMBL1201862, “PubChem BioAssay data set” (2004).
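Interpolation was linear, between the two tested concentrations surrounding the appropriate level; five concentrations were tested over 48 hours in 96-well plates. GI50 marks 50% less growth.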 Active and inactive are the calls of the source. Rule as the data show it: active = GI50 up to about 1.1 µM and inactive = higher.

Columns and labels:
Test in all cases: inhibition of tumour cell growth, NCI panel, 48 h
MCF7 = tested on: MCF7
SF-539 = tested on: SF-539
TK-10 = tested on: TK-10
M14 = tested on: M14
CAKI-1 = tested on: CAKI-1
SF-268 = tested on: SF-268
Hs-578T = tested on: Hs-578T
MDA-N = tested on: MDA-N
HT-29 = tested on: HT-29
SN12C = tested on: SN12C
UACC-257 = tested on: UACC-257
UO-31 = tested on: UO-31
A498 = tested on: A498
SK-MEL-5 = tested on: SK-MEL-5
HCT-15 = tested on: HCT-15
HOP-92 = tested on: HOP-92
RPMI-8226 = tested on: RPMI-8226
UACC-62 = tested on: UACC-62
SK-MEL-28 = tested on: SK-MEL-28
SK-MEL-2 = tested on: SK-MEL-2

Row | SMILES | GI50 (MCF7) | GI50 (SF-539) | GI50 (TK-10) | GI50 (M14) | GI50 (CAKI-1) | GI50 (SF-268) | GI50 (Hs-578T) | GI50 (MDA-N) | GI50 (HT-29) | GI50 (SN12C) | GI50 (UACC-257) | GI50 (UO-31) | GI50 (A498) | GI50 (SK-MEL-5) | GI50 (HCT-15) | GI50 (HOP-92) | GI50 (RPMI-8226) | GI50 (UACC-62) | GI50 (SK-MEL-28) | GI50 (SK-MEL-2)
1 | CC1OC(OC2C(O)COC(OC3C(C)OC(OC4C(OC(=O)[C@]56CCC(C)(C)C[C@@H]5C5=CCC7[C@@]8(C)C[C@H](O)[C@H](OC9OC(CO)C(O)C(O)C9O)[C@@](C)(CO)[C@@H]8CC[C@@]7(C)[C@]5(C)CC6)OCC(O)C4O)C(O)C3O)C2O)C(O)C(O)C1O (stereo partly specified) | 30.9 µM (inactive) | 22.2 µM (inactive) | 17.1 µM (inactive) | 22.8 µM (inactive) | 12.5 µM (inactive) | 27.7 µM (inactive) | 32 µM (inactive) | 20.5 µM (inactive) | 21 µM (inactive) | 21.2 µM (inactive) | 17.5 µM (inactive) | 12.9 µM (inactive) | 19.5 µM (inactive) | 20.4 µM (inactive) | 20.9 µM | 23.7 µM (inactive) | 33.2 µM (inactive) | 20.8 µM (inactive) | 15 µM (inactive) | 
2 | O=C(OC1OC2COC(=O)c3cc(O)c(O)c(O)c3-c3c(cc(O)c(O)c3O)C(=O)OC3C2OC(=O)[C@@]24CC(=O)[C@@](O)(OC25C(=O)O[C@H]2[C@@H](O)CO[C@@]25O)C2(O)Oc5c(O)c(O)cc(c5C24)C(=O)OC13)c1cc(O)c(O)c(O)c1 (stereo partly specified) | 13.6 µM (inactive) |  |  | 49.3 µM (inactive) | 12.1 µM (inactive) | 58.6 µM (inactive) | > 100 µM (inactive) | 31.5 µM (inactive) | 23.2 µM (inactive) | 56 µM (inactive) | > 100 µM (inactive) | 34.8 µM (inactive) | 9.12 µM (inactive) | 42.7 µM (inactive) | 22.9 µM | 31.2 µM (inactive) | 99.5 µM (inactive) | 35.7 µM (inactive) | > 100 µM (inactive) | > 100 µM (inactive)
3 | Cc1cc2c3ccccc3[nH]c2c2ccnc(C)c12 | 27.9 µM (inactive) | 2.76 µM (inactive) | 14.2 µM (inactive) | 1.84 µM (inactive) | 19 µM (inactive) | 17.6 µM (inactive) | 13.6 µM (inactive) | 1.71 µM (inactive) | 3.55 µM (inactive) | 5.56 µM (inactive) | 18.2 µM (inactive) | 14.2 µM (inactive) |  | 4.78 µM (inactive) | 2.34 µM | 5.11 µM (inactive) | 3.21 µM (inactive) | 7.36 µM (inactive) | 1.77 µM (inactive) | 8.63 µM (inactive)
4 | N#CC(Cc1ccccc1)N(CCC1=CCCCC1)Cc1ccccc1 (stereo unspecified) | 31.2 µM (inactive) |  | > 100 µM (inactive) | 44.6 µM (inactive) | > 100 µM (inactive) | > 100 µM (inactive) | > 100 µM (inactive) | 32.4 µM (inactive) | 32.2 µM (inactive) |  | 43.8 µM (inactive) | > 100 µM (inactive) | > 100 µM (inactive) | 22.3 µM (inactive) | 42.9 µM | 35.1 µM (inactive) | 17.9 µM (inactive) | 81.3 µM (inactive) | 68.4 µM (inactive) | 57.8 µM (inactive)
5 | CCOC(=O)C1=CCOc2cc(N(C)C)ccc21 | > 100 µM (inactive) | > 100 µM (inactive) | > 100 µM (inactive) | > 100 µM (inactive) | > 100 µM (inactive) | 97.5 µM (inactive) | > 100 µM (inactive) | > 100 µM (inactive) | > 100 µM (inactive) | > 100 µM (inactive) | > 100 µM (inactive) | > 100 µM (inactive) | > 100 µM (inactive) | > 100 µM (inactive) | > 100 µM |  | > 100 µM (inactive) | > 100 µM (inactive) | > 100 µM (inactive) | 75 µM (inactive)
6 | N#C/C(=C\c1ccc2ccccc2c1)C(=O)c1ccccc1 | > 100 µM (inactive) | > 100 µM (inactive) | > 100 µM (inactive) | > 64.9 µM (inactive) | > 100 µM (inactive) | 63.5 µM (inactive) | 22.2 µM (inactive) | 44.6 µM (inactive) | > 67.3 µM (inactive) | > 66.5 µM (inactive) | 82 µM (inactive) | > 86.7 µM (inactive) | > 85.7 µM (inactive) | > 63 µM (inactive) | 65 µM |  | 34.2 µM (inactive) | > 57 µM (inactive) | > 47 µM (inactive) | > 100 µM (inactive)
7 | [N-]=[N+]=Nc1cc(=O)n2c3c(cccc13)CCC2 | > 100 µM (inactive) | > 100 µM (inactive) | > 100 µM (inactive) | > 100 µM (inactive) |  | > 100 µM (inactive) | > 100 µM (inactive) | > 100 µM (inactive) | > 100 µM (inactive) | > 100 µM (inactive) | > 100 µM (inactive) | > 100 µM (inactive) | > 100 µM (inactive) |  | > 100 µM | > 100 µM (inactive) | > 100 µM (inactive) | > 100 µM (inactive) | > 100 µM (inactive) | 
8 | CC1=CC(=O)/C(=C/NC(=O)NN)C(=O)O1 | > 100 µM (inactive) | 77.8 µM (inactive) | > 100 µM (inactive) | > 100 µM (inactive) | > 100 µM (inactive) | > 100 µM (inactive) | > 100 µM (inactive) | > 100 µM (inactive) |  | > 100 µM (inactive) | > 100 µM (inactive) | > 100 µM (inactive) |  | > 100 µM (inactive) | > 100 µM | > 100 µM (inactive) |  | > 100 µM (inactive) | 54.5 µM (inactive) | > 100 µM (inactive)
